Literature values in patent US6726673B1, “Methods and apparatus for improved administration of testosterone pharmaceuticals” (Zars, Inc., priority 1999, dated 2004).

Settings: following intramuscular injection, absorbed gradually from the lipid tissue phase at the injection site

In the case of `CCCCCCC(=O)O[C@H]1CC[C@H]2[C@@H]3CCC4=CC(=O)CC[C@]4(C)[C@H]3CC[C@]12C` [testosterone enanthate], the duration of action is given as 2-4 weeks.
